Reference: EPA's ToxValDB 9.5 (doi:10.2903/j.efsa.2009.332r)

How the values were obtained:
[1] = chronic/long-term
Anas platyrhynchos = conditions: acute; oral; unspecified; mortality
Apis mellifera = conditions: acute; dermal; mortality
Canidae = conditions: chronic; duration: 1 years; oral; Dog Other; hematological
Colinus virginianus = conditions: for LD50: acute, oral, mortality
Daphnia magna = conditions: chronic/long-term; duration: 21 days; mortality
Mus musculus = conditions: acute; oral; mortality
Oncorhynchus mykiss = conditions: chronic/long-term; growth
Rattus norvegicus = conditions: oral
Tagia sp. = conditions: acute; duration: 14 days; mortality

O=C(NC(=O)c1c(F)cccc1F)Nc1ccc(Cl)cc1 [Diflubenzuron]
NOEL [1]: 3680 mg/kg-day
LD50 (Anas platyrhynchos): > 5000 mg/kg
LD50 (Apis mellifera): 0.05 µg/piece
NOAEL (Canidae): 10 mg/kg-day
LD50 (Colinus virginianus; diet): > 1210 mg/kg-day
LD50 (Colinus virginianus): > 5000 mg/kg
NOEC (Colinus virginianus; reproduction developmental): 42.7 mg/kg-day
NOEC (Daphnia magna): 4e-05 mg/L
LD50 (Mus musculus): > 4640 mg/kg
NOEC (Oncorhynchus mykiss): 0.2 mg/L
LD50 (Rattus norvegicus; acute, mortality): 4640 mg/kg
NOAEL (Rattus norvegicus; subchronic, duration: 13 weeks, hematological): 11 mg/kg-day
LC50 (Tagia sp.): > 1000 mg/kg
